Assay results published in patent publication US20230115945A1, “AMINOPYRIMIDINE COMPOUNDS” (TYRA BIOSCIENCES, INC., priority 2019, published 2023).

Legend:
FGFR3 = molecular target: T1, FGFR3 (Homo sapiens, UniProt P22607); assay: Kinase binding assay (Kd), FGFR3; conditions: 11-point 3-fold dilution, qPCR readout
T1 construct: made in house; host or cells: E. coli host derived from BL21, infected with T7 phage
Method in brief: (§1)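 Kinases expressed as T7 phage fusions are mixed with ligand-coated magnetic beads and compound (0.9% DMSO), then shaken 1 h at room temperature. After washing, bound kinase is eluted with free ligand for 30 min and measured by qPCR; Kd is obtained by Hill-equation fitting.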

FGFR3 (V555M) = molecular target: T2, FGFR3 (V555M) (Homo sapiens, UniProt P22607, V555M); assay: Kinase binding assay (Kd), FGFR3 (V555M); conditions: 11-point 3-fold dilution, qPCR readout
T2 construct: made in house; host or cells: E. coli host derived from BL21, infected with T7 phage
T2 sequence (P22607 23-806 V555M): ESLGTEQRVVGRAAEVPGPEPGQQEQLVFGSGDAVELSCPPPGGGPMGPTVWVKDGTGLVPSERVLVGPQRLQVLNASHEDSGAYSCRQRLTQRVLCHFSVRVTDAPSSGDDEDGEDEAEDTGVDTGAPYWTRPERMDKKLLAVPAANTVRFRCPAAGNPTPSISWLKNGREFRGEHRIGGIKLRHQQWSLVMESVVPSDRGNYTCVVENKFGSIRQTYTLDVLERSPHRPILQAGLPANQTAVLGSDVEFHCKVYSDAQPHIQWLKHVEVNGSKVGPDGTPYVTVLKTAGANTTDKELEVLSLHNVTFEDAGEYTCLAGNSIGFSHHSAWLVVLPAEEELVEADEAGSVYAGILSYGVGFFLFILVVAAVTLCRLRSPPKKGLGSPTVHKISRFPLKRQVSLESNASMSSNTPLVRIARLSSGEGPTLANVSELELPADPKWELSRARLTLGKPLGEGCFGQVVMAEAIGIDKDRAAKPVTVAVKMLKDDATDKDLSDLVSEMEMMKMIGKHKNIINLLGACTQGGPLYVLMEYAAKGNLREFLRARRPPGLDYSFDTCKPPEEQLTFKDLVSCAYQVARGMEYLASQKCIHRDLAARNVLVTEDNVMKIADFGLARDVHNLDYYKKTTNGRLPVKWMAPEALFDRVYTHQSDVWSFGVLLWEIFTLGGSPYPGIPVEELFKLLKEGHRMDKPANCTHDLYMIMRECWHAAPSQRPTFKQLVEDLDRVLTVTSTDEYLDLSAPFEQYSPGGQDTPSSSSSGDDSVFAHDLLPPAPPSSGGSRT
Method in brief: as §1

FGFR4 = molecular target: T3, FGFR4 (Homo sapiens, UniProt P22455); assay: Kinase binding assay (Kd), FGFR4; conditions: 11-point 3-fold dilution, qPCR readout
T3 construct: made in house; host or cells: E. coli host derived from BL21, infected with T7 phage
T3 sequence (P22455 22-802): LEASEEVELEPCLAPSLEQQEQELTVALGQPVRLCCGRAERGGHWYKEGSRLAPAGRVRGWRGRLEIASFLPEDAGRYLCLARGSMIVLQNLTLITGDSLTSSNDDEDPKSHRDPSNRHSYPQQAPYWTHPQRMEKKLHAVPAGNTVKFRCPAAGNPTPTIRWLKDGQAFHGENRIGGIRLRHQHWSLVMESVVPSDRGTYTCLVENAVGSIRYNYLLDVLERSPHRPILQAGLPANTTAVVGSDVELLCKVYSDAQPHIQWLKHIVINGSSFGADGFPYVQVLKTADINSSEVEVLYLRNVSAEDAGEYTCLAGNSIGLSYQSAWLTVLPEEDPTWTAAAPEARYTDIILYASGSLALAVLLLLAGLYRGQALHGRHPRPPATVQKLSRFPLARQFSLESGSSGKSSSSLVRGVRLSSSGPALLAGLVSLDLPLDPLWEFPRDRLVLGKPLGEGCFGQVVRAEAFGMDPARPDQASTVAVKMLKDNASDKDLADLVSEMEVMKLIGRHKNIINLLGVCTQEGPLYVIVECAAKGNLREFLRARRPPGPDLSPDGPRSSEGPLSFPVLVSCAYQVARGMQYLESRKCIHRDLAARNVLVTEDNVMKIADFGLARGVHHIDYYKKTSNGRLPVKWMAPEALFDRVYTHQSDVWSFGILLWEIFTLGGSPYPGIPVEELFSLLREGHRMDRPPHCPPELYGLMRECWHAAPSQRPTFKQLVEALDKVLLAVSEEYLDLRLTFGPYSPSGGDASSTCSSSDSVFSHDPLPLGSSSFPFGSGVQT
Method in brief: as §1

[1] = tested on: SNU-16 cells (Gastric Carcinoma, FGFR2 amplification); assay: Cancer cell line cell viability assay, SNU-16; assay type: cell-based; conditions: Homo sapiens, 72 hours, Cell Titer-Glo 2.0, read-out: Cancer Cell Viability Assays SNU-16 (IC50 nM)
Description: (§2) [table] To detect the change of intracellular ATP by Cell Titer-Glo® and to evaluate the inhibitory effect of the compounds on cancer cell lines by determining the in vitro IC50 value of the compounds. Cell Titer-Glo® 2.0 Luminescent cell viability assay reagent was purchased from Promega (Madison, Wis.). RT112/84, SNU-16, and KG-1 cell lines were purchased from American Type Culture Collection (Manassas, Va.). UM-UC-14 cell line was purchased from Sigma (St. Louis, Mo.). RT112/84, UM-UC-14, SNU-16, and KG-1 cells were cultured in RPMI1640 media supplemented with 10% fetal bovine serum. Cultures were maintained at 37° C. in a humidified atmosphere of 5% CO2 and 95% air. Cell Viability Assay Procedure: Cells were plated in 96-well clear bottom/white plates (Corning #3903) at 10,000 cells/well in 100 μl of media, incubated overnight. The next day, test compound DMSO stock solutions were made at 10 mM and 2 μM final concentration. Compounds were then added to cells in a 9-dose, […] dilution series starting at 30 μM with an HP 300e Digital Dispenser (each dose was applied in triplicate). DMSO was backfilled to each well up to 301 nL total volume of test compound+DMSO, and a total of 301 nL DMSO was added to a control/no test compound well in triplicate. The cells in cell culture plates were incubated with the compounds at 37° C. and 5% CO2 for 72 hours. Then 50 μl of Cell Titer Glo 2.0 reagent was added to each well of the cell culture plates. The contents were covered from light and mixed on an orbital shaker at room temperature for 10 min. Luminescence was recorded by a Synergy H1 Microplate Reader (Biotek, Winooski, Vt.). Cells were assessed as a percentage of DMSO only treated control cells. Curves were plotted and IC50 values were calculated using the GraphPad Prism 8 program based on a sigmoidal dose-response equation (4 parameter).

[2] = tested on: RT112/84 cells (Bladder Cancer, FGFR3-TACC3 fusion); assay: Cancer cell line cell viability assay, RT112/84; assay type: cell-based; conditions: Homo sapiens, 72 hours, Cell Titer-Glo 2.0, read-out: Cancer Cell Viability Assays RT112/84 (IC50 nM)
Description: as §2

FGFR1 = molecular target: T4, FGFR1 (Homo sapiens, UniProt P11362); assay: Kinase binding assay (Kd), FGFR1; conditions: 11-point 3-fold dilution, qPCR readout
T4 construct: made in house; host or cells: E. coli host derived from BL21, infected with T7 phage
T4 sequence (P11362 22-822): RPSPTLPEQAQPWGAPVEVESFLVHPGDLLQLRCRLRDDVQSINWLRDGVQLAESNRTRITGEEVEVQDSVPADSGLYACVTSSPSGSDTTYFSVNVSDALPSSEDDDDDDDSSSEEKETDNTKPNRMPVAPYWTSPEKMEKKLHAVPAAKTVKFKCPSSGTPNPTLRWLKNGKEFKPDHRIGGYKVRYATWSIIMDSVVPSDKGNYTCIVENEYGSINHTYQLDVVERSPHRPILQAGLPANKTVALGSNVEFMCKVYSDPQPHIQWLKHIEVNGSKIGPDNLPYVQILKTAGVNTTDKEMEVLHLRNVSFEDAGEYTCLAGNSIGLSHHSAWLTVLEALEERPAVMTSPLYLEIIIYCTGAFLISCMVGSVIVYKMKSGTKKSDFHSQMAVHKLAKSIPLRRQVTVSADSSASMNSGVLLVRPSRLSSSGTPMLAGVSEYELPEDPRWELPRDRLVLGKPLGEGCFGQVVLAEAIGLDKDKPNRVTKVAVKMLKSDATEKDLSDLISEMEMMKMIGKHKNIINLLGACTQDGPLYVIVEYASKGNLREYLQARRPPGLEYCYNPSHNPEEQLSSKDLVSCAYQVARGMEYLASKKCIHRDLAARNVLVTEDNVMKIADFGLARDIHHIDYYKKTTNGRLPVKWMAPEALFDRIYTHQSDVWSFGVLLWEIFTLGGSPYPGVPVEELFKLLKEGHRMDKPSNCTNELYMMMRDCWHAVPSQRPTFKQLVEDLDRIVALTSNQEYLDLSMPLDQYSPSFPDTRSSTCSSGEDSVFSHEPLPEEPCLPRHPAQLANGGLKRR
Method in brief: as §1

FGFR2 = molecular target: T5, FGFR2 (Homo sapiens, UniProt P21802); assay: Kinase binding assay (Kd), FGFR2; conditions: 11-point 3-fold dilution, qPCR readout
T5 construct: made in house; host or cells: E. coli host derived from BL21, infected with T7 phage
T5 sequence (P21802 22-821): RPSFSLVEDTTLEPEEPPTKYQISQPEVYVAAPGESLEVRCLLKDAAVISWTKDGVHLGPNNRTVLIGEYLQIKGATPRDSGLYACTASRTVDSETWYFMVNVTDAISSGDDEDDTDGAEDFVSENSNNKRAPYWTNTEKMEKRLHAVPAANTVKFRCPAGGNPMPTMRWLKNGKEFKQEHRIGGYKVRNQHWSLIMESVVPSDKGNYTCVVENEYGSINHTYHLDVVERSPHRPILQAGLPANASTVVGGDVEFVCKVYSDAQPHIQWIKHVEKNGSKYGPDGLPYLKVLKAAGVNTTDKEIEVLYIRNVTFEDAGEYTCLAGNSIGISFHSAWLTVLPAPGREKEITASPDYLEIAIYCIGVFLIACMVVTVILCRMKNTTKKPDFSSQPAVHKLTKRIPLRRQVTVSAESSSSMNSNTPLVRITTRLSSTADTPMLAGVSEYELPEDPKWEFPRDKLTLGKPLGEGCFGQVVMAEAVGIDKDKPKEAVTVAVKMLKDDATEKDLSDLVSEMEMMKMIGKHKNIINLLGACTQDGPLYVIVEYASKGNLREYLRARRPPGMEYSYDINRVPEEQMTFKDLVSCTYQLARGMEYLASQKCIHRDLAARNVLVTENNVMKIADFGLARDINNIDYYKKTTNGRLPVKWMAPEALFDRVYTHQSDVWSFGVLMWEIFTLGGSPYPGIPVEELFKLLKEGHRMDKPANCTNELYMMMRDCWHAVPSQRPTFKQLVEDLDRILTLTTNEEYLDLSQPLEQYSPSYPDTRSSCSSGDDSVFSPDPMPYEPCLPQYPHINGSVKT
Method in brief: as §1

[3] = molecular target: T6, FGFR3-BAIAP2L1 Ba/F3 cells (Homo sapiens, UniProt P22607); assay: Ba/F3 cell viability assay, FGFR3; assay type: cell-based; conditions: FGFR3-BAIAP2L1 fusion Ba/F3, 48 hours, Cell Titer-Glo 2.0; read-out: Ba/F3 Cells FGFR3 (IC50 nM)
T6 construct: Ba/F3 FGFR3; FGFR3--BAIAP2L1 fusion; Advanced Cellular Dynamics, (Seattle, WA); fused on or other part: Q9UHR4 (BAR/IMD domain-containing adapter protein 2-like 1)
T6 sequence (P22607 whole entry, change not shown, the tested form may be a part): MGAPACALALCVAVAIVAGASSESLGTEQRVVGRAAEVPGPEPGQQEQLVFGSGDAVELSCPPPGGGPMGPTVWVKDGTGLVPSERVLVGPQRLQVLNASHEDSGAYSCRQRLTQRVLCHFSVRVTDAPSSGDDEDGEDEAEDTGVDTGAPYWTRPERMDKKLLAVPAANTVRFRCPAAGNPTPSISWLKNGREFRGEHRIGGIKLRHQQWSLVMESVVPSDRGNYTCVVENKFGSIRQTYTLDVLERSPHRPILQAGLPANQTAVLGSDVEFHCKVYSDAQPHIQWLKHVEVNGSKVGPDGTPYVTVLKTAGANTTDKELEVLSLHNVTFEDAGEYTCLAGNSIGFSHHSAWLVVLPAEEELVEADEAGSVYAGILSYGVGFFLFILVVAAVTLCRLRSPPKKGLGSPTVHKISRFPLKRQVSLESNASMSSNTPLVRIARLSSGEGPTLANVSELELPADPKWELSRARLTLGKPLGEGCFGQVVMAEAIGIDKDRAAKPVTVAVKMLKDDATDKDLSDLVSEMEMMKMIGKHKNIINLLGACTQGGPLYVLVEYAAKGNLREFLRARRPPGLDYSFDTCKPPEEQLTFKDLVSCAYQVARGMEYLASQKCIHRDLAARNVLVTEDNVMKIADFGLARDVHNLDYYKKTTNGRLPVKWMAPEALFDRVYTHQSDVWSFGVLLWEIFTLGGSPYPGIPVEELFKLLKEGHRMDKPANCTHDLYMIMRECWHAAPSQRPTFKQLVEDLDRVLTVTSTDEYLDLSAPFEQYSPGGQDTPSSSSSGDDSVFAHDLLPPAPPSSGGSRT
Description: Experimental Purpose: Recombinant kinase fusions are transduced into parental Ba/F3, which becomes dependent upon this constitutive kinase activity for IL3-independent survival. Inhibition of kinase activity leads to cell death, which is monitored using CellTiter-Glo® 2.0 (Promega) which measures intracellular ATP concentration that in turn serves as a marker for viability. FGFR1-BCR Ba/F3 and FGFR3-BAIAP2L1 Ba/F3 were obtained from Advanced Cellular Dynamics (Seattle, Wash.)
Cell Viability Assay Procedure: Cell Titer-Glo® 2.0 Luminescent cell viability assay reagent was purchased from Promega (Madison, Wis.). FGFR1-BCR Ba/F3 and FGFR3-BAIAP2L1 Ba/F3 cells were cultured in RPMI1640 media supplemented with 10% fetal bovine serum. Cultures were maintained at 37° C. in a humidified atmosphere of 5% CO2 and 95% air.
Cells were plated in 96-well clear bottom/white plates (Corning #3903) at 10,000 cells/well in 100 μl of media, incubated overnight. The next day, test compound DMSO stock solutions were made at 10 mM and 2 μM final concentration. Compounds were then added to cells in a 9-dose, 10-fold dilution series starting at 30 μM with an HP 300e Digital Dispenser (each dose was applied in triplicate). DMSO was backfilled to each well up to 301 nL total volume of test compound+DMSO, and a total of 301 nL DMSO was added to a control/no test compound well in triplicate. The cells in cell culture plates were incubated with the compounds at 37° C. and 5% CO2 for 48 hours. Then 50 μl of Cell Titer Glo 2.0 reagent was added to each well of the cell culture plates. The contents were covered from light and mixed on an orbital shaker at room temperature for 10 min. Luminescence was recorded by a Synergy H1 Microplate Reader (Biotek, Winooski, Vt.). Cells were assessed as a percentage of DMSO only treated control cells. Curves were plotted and IC50 values were calculated using the GraphPad Prism 8 program based on a sigmoidal dose-response equation (4 parameter).

T1 sequence (P22607 23-806): as the sequence (P22607 23-806 V555M) above, with M533V counted along it

Kd (FGFR3)	Kd (FGFR3 (V555M))	Kd (FGFR4)	IC50 [1]	IC50 [2]	Kd (FGFR1)	Kd (FGFR2)	SMILES	GI50 [3]
34 nM	3 nM	26 nM	130 nM	119 nM	25 nM	92 nM	COc1cc(N=S2(=O)CCN(C)CC2)ccc1Nc1ncc(Cl)c(-c2c[nH]c3ccccc23)n1 [Example 38, 5-Chloro-4-(1H-indol-3-yl)-N-[2-methoxy-4-[(4-methyl-1-oxo-1,4-thiazinan-1-ylidene)-amino]phenyl]pyrimidin-2-amine]	–
8 nM	1 nM	120 nM	189 nM	78 nM	8 nM	4 nM	Cc1cnc(Nc2ccc(N=S3(=O)CCN(C)CC3)cc2)nc1-c1c[nH]c2ccccc12 [Example 49, 4-(1H-Indol-3-yl)-5-methyl-N-[4-[(4-methyl-1-oxo-1,4-thiazinan-1-ylidene)amino]-phenyl]pyrimidin-2-amine]	–
18 nM	3 nM	130 nM	45 nM	48 nM	10 nM	6 nM	Cc1cnc(Nc2ccc(S(=N)(=O)C3CC3)cc2)nc1-c1c[nH]c2ccccc12 (stereo not shown) [Example 51, N-[4-(Cyclopropyl-sulfonimidoyl)-phenyl]-4-(1H-indol-3-yl)-5-methyl-pyrimidin-2-amine]	–
24 nM	6 nM	390 nM	83 nM	76 nM	27 nM	9 nM	CS(=N)(=O)c1ccc(Nc2ncc(Cl)c(-c3c[nH]c4ccccc34)n2)cc1 (stereo not shown) [Example 52, 5-Chloro-4-(1H-indol-3-yl)-N-[4-(methylsulfonimidoyl)-phenyl]pyrimidin-2-amine]	–
11 nM	1 nM	74 nM	31 nM	22 nM	5 nM	3 nM	N=S1(=O)CCN(c2ccc(Nc3ncc(Cl)c(-c4c[nH]c5ccccc45)n3)cc2)CC1 [Example 53, 5-Chloro-N-[4-(1-imino-1-oxo-1,4-thiazinan-4-yl)phenyl]-4-(1H-indol-3-yl)pyrimidin-2-amine]	–
13 nM	2 nM	100 nM	44 nM	33 nM	10 nM	7 nM	Cc1cnc(Nc2ccc(N3CCS(=N)(=O)CC3)cc2)nc1-c1c[nH]c2ccccc12 [Example 54, N-[4-(1-Imino-1-oxo-1,4-thiazinan-4-yl)phenyl]-4-(1H-indol-3-yl)-5-methyl-pyrimidin-2-amine]	–
23 nM	2 nM	110 nM	40 nM	49 nM	13 nM	6 nM	CN1CCS(=O)(=Nc2ccc(Nc3ncc(Cl)c(-c4c[nH]c5ccccc45)n3)cc2)CC1 [Example 55, 5-Chloro-4-(1H-indol-3-yl)-N-[4-[(4-methyl-1-oxo-1,4-thiazinan-l-ylidene)amino]-phenyl]pyrimidin-2-amine]	–
49 nM	3 nM	740 nM	857 nM	377 nM	64 nM	34 nM	Cc1[nH]c2ccccc2c1-c1nc(Nc2ccc(S(C)(=N)=O)cc2)ncc1Cl (stereo not shown) [Example 56, 5-Chloro-4-(2-methyl-1H-indol-3-yl)-N-[4-(methylsulfonimidoyl)phenyl]-pyrimidin-2-amine]	273 nM
53 nM	6 nM	680 nM	803 nM	610 nM	50 nM	43 nM	Cc1cnc(Nc2ccc(S(C)(=N)=O)cc2)nc1-c1c(C)[nH]c2ccccc12 (stereo not shown) [Example 57, 5-Methyl-4-(2-methyl-1H-indol-3-yl)-N-[4-(methylsulfonimidoyl)phenyl]-pyrimidin-2-amine]	431 nM
62 nM	9.8 nM	510 nM	1450 nM	421 nM	130 nM	120 nM	CN(C)C/C=C/C(=O)Nc1ccc2c(ccn2-c2nc(Nc3ccc(N=S(C)(C)=O)cc3)ncc2Cl)c1 [Example 67, (E)-N-[1-[5-Chloro-2-[4-[[dimethyl(oxo)-λ^6-sulfanylidene]amino]anilino]-pyrimidin-4-yl]indol-5-yl]-4-(dimethylamino)but-2-enamide]	–
14 nM	3.8 nM	160 nM	14 nM	82 nM	33 nM	28 nM	C=CC(=O)Nc1ccc2c(ccn2-c2nc(Nc3ccc(N=S4(=O)CCN(C)CC4)cc3)ncc2Cl)c1 [Example 69, N-[1-[5-Chloro-2-[4-[(4-methyl-1-oxo-1,4-thiazinan-1-ylidene)amino]anilino]pyrimidin-4-yl]indol-5-yl]prop-2-enamide]	–
41 nM	20 nM	560 nM	9 nM	713 nM	140 nM	77 nM	C=CC(=O)Nc1ccc2c(ccn2-c2nc(Nc3ccc(S(C)(=N)=O)cc3)ncc2C)c1 (stereo not shown) [Example 74, N-[1-[5-Methyl-2-[4-(methylsulfonimidoyl)anilino]-pyrimidin-4-yl]indol-5-yl]prop-2-enamide]	–
41 nM	4 nM	360 nM	71 nM	81 nM	47 nM	59 nM	C=CC(=O)Nc1ccc2c(-c3nc(Nc4ccc(S(=N)(=O)C5CC5)cc4)ncc3Cl)c[nH]c2c1 (stereo not shown) [Example 90, N-[3-[5-Chloro-2-[4-(cyclopropylsulfonimidoyl)anilino]pyrimidin-4-yl]-1H-indol-6-yl]prop-2-enamide]	–
48 nM	2 nM	130 nM	19 nM	48 nM	19 nM	24 nM	C=CC(=O)Nc1cccc2c(-c3nc(Nc4ccc(S(C)(=N)=O)cc4)ncc3Cl)c[nH]c12 (stereo not shown) [Example 91, N-[3-[5-chloro-2-[4-(methylsulfonimidoyl)anilino]pyrimidin-4-yl]-1H-indol-7-yl]prop-2-enamide]	–
